Assay results taken from US20100120789A1, “Compound” (priority 2005, published 2010).

melting point | Structure (SMILES)
121 to 125 °C | O=C(CC12CC3CC(CC(C3)C1)C2)N1CCc2sccc2C1
88 to 91 °C | CN(Cc1cccs1)C(=O)C12CC3CC(CC(O)(C3)C1)C2
59 to 60 °C | CN(CCc1ccccn1)C(=O)CC12CC3CC(CC(C3)C1)C2
187 to 188 °C | O=C(CC12CC3CC(CC(C3)C1)C2)NCc1ccc(-c2ccccn2)s1
66 to 68 °C | CN(Cc1cn(C23CC4CC(CC(C4)C2)C3)nn1)Cc1cccs1
198 to 199 °C | O=S(=O)(Cc1cn(C23CC4CC(CC(C4)C2)C3)nn1)c1cc(Cl)ccc1Cl
201 to 203 °C | CN(CC(=O)C12CC3CC(CC(C3)C1)C2)Cc1cccs1.Cl
144 to 145 °C | COc1cc2c(cc1OCc1ccccc1)CCN(C(=O)C13CC4CC(CC(C4)C1)C3)C2
133 to 135 °C | COc1cc2c(cc1OCc1ccccc1)CCN(C(=O)CC13CC4CC(CC(C4)C1)C3)C2
224 to 228 °C | COc1cc2c(cc1O)CCN(C(=O)C13CC4CC(CC(C4)C1)C3)C2
169 to 172 °C | COc1cc2c(cc1O)CCN(C(=O)CC13CC4CC(CC(C4)C1)C3)C2
151 to 155 °C | COc1cc2c(cc1OC)CN(C(=O)C13CC4CC(CC(C4)C1)C3)CC2
165 to 167 °C | COc1cc2c(cc1OC)CN(C(=O)CC13CC4CC(CC(C4)C1)C3)CC2
116 to 120 °C | Cc1nc2cc(NCC(=O)C3(C)CC3)ccc2s1
150 to 153 °C | O=C(NCc1ccc(Cl)cc1)C12CC3CC(CC(C3)C1)C2
137 to 140 °C | Cc1ccc(CNC(=O)C23CC4CC(CC(C4)C2)C3)cc1
166 to 168 °C | O=C(CC12CC3CC(CC(C3)C1)C2)NCc1ccc(Cl)cc1
139 to 142 °C | Cc1ccc(CNC(=O)CC23CC4CC(CC(C4)C2)C3)cc1
75 to 76 °C | CN(Cc1ccc(Cl)cc1)C(=O)CC12CC3CC(CC(C3)C1)C2
103 to 105 °C | CCN(Cc1cccs1)C(=O)C12CC3CC(CC(C3)C1)C2
112 to 115.5 °C | O=C(N(Cc1cccs1)CC1CCCCC1)C12CC3CC(CC(C3)C1)C2
134 to 136 °C | O=C(CC12CC3CC(CC(C3)C1)C2)N1CCN(c2ccccn2)CC1
156 to 158 °C | CC(C)N(Cc1cccs1)C(=O)C12CC3CC(CC(C3)C1)C2
51 to 53 °C | CN(Cc1cccs1)C(=O)CSC12CC3CC(CC(C3)C1)C2

melting point | Structure (SMILES)
141.5 to 143 °C | O=C(N1CCN(Cc2ccc(Cl)cc2)CC1)C12CC3CC(CC(C3)C1)C2
185 to 187 °C | Cc1cccc(CN2CCN(C(=O)C34CC5CC(CC(C5)C3)C4)CC2)c1
73 to 75.5 °C | CSc1ccc(CN(C)C(=O)C23CC4CC(CC(C4)C2)C3)s1
120 to 122 °C | CN(Cc1cccs1)C(=O)CS(=O)(=O)C12CC3CC(CC(C3)C1)C2
126 to 129 °C | Cc1cccc(NC(=O)CS(=O)(=O)C23CC4CC(CC(C4)C2)C3)n1
211 to 211.5 °C | CNC(=O)c1ccc(CN(C)C(=O)C23CC4CC(CC(C4)C2)C3)s1
123 to 124 °C | Cc1c(C(=O)CSCc2ccc(Cl)cc2)sc2ccc(Cl)cc12
145 to 146 °C | CN(C)C(=O)c1ccc(CN(C)C(=O)C23CC4CC(CC(C4)C2)C3)s1
173.5 to 175.5 °C | CC(=O)Nc1ccc([S+]([O-])CC(=O)C23CC4CC(CC(C4)C2)C3)cc1 (stereo not shown)
155.5 to 157 °C | Cc1ccc(CNC(=O)C2CCN(C(=O)C34CC5CC(CC(C5)C3)C4)CC2)cc1
127.7 °C | CC(C)(C)c1ccc(CS(=O)(=O)CC(=O)C23CC4CC(CC(C4)C2)C3)cc1
132.8 °C | Cc1cccc(CS(=O)(=O)CC(=O)C23CC4CC(CC(C4)C2)C3)c1
128.7 °C | COC(=O)c1ccc(OCC(=O)C23CC4CC(CC(C4)C2)C3)cc1
84.5 °C | COC(=O)c1cccc(OCC(=O)C23CC4CC(CC(C4)C2)C3)c1
145.6 °C | O=C(NCc1ccccc1)c1ccc(OCC(=O)C23CC4CC(CC(C4)C2)C3)cc1
88.7 °C | COC(=O)c1ccc(COCC(=O)C23CC4CC(CC(C4)C2)C3)cc1
184.3 °C | O=C(Nc1ccccc1)c1ccc(OCC(=O)C23CC4CC(CC(C4)C2)C3)cc1
162.2 °C | O=C(NCc1ccco1)c1ccc(OCC(=O)C23CC4CC(CC(C4)C2)C3)cc1
73.5 to 75 °C | CN(Cc1ccc(Cl)s1)C(=O)CC12CC3CC(CC(C3)C1)C2
98 to 100 °C | O=C(CC12CC3CC(CC(C3)C1)C2)N1CCN(C(=O)c2ccco2)CC1
204 to 206 °C | CC(=O)Nc1ccc(OCC(=O)C23CC4CC(CC(C4)C2)C3)cc1Cl
153.4 °C | O=C(Cc1ccc(OCC(=O)C23CC4CC(CC(C4)C2)C3)cc1)Nc1ccccc1
197 to 198 °C | O=S(=O)(NCC12CC3CC(CC(C3)C1)C2)c1cc(Cl)ccc1Cl [STX1369, N-Adamantan-1-ylmethyl-2,5-dichloro-benzenesulfonamide]

Structure (SMILES) | melting point
CCCc1ccc(S(=O)(=O)NC23CC4CC(CC(C4)C2)C3)cc1 [STX1341, N-Adamantan-1-yl-4-propyl-benzenesulfonamide] | 178 to 178.5 °C
O=S(=O)(NC12CC3CC(CC(C3)C1)C2)c1cc(Cl)ccc1Cl [STX1342, N-Adamantan-1-yl-2,5-dichloro-benzenesulfonamide] | 189 to 190 °C
Cc1c(Cl)cccc1S(=O)(=O)NC12CC3CC(CC(C3)C1)C2 [STX1343, N-Adamantan-1-yl-3-chloro-2-methyl-benzenesulfonamide] | 197.5 to 198 °C
O=S(=O)(NC12CC3CC(CC(C3)C1)C2)c1ccc(-c2ccccc2)cc1 [STX1344, Biphenyl-4-sulfonic acid adamantan-1-ylamide] | 205 to 205.5 °C
CCCc1ccc(S(=O)(=O)NCC23CC4CC(CC(C4)C2)C3)cc1 [STX1368, N-Adamantan-1-ylmethyl-4-propyl-benzenesulfonamide] | 148 to 149 °C
Cc1c(Cl)cccc1S(=O)(=O)NCC12CC3CC(CC(C3)C1)C2 [STX1370, N-Adamantan-1-ylmethyl-3-chloro-2-methyl-benzenesulfonamide] | 183 to 184 °C
O=S(=O)(NCC12CC3CC(CC(C3)C1)C2)c1ccc(-c2ccccc2)cc1 [STX1371, Biphenyl-4-sulfonic acid (adamantan-1-ylmethyl)-amide] | 188 to 189.5 °C
Cc1nc2c(NC(=O)C34CC5CC(CC(C5)C3)C4)c(C)ccc2s1 [STX1372, Adamantane-1-carboxylic acid (2,5-dimethyl-benzothiazol-4-yl)-amide] | 183.5 to 185 °C
Cc1nc2c(Cl)c(NC(=O)C34CC5CC(CC(C5)C3)C4)ccc2s1 [STX1373, Adamantane-1-carboxylic acid (4-chloro-2-methyl-benzothiazol-5-yl)-amide] | 183.5 to 185.5 °C
O=C(NCc1cccs1)C12CC3CC(CC(C3)C1)C2 [STX1374, Adamantane-1-carboxylic acid (thiophen-2-ylmethyl)-amide] | 155 to 155.5 °C
O=C(NCCc1cccs1)C12CC3CC(CC(C3)C1)C2 [STX1375, Adamantane-1-carboxylic acid (2-thiophen-2-yl-ethyl)-amide] | 123 to 126 °C
O=S(=O)(NC12CC3CC(CC(C3)C1)C2)c1cccs1 [STX1573, Thiophene-2-sulfonic acid adamantan-1-ylamide] | 129 to 131 °C
CC(C)(C)CC(=O)NCc1cccs1 [STX1639, 3,3-Dimethyl-N-thiophen-2-ylmethyl-butyramide] | 83 to 84 °C
CC(C(=O)NCc1cccs1)(c1ccccc1)c1ccccc1 [STX1640, 2,2-Diphenyl-N-thiophen-2-ylmethyl-propionamide] | 90 to 91 °C
CC1(C(=O)NCc2cccs2)CC1 [STX1641, 1-Methyl-cyclopropanecarboxylic acid (thiophen-2-yl methyl)-amide] | 70 to 71 °C
CC1(C(=O)NCc2cccs2)CCCCC1 [STX1642, 1-Methyl-cyclohexanecarboxylic acid(thiophen-2-ylmethyl)-amide] | 72 to 73 °C
O=C(NCCc1cccs1)C12CC3CC(CC1C3)C2 [STX1656, Hexahydro-2,5-methano-pentalene-3a-carboxylic acid(2-thiophen-2-yl-ethyl)-amide] | 113 to 114 °C
CC12CC3CC(C)(C1)CC(C(=O)NCc1cccs1)(C3)C2 [STX1671, 3,5-Dimethyl-adamantane-1-carboxylic acid(thiophen-2-ylmethyl)-amide] | 101 to 103 °C
CC12CC3CC(C)(C1)CC(C(=O)NCCc1cccs1)(C3)C2 [STX1672, 3,5-Dimethyl-adamantane-1-carboxylic acid(2-thiophen-2-yl-ethyl)-amide] | 131 to 132 °C
CC(C)(C)C(=O)NCc1cccs1 [STX1673, 2,2-Dimethyl-N-thiophen-2-ylmethyl-propionamide] | 64 to 65 °C
CC(C)(C)C(=O)NCCc1cccs1 [STX1674, 2,2-Dimethyl-N-(2-thiophen-2-yl-ethyl)-propionamide] | 79 to 80 °C
O=C(NCCc1cccs1)C12CC3CC(CC(O)(C3)C1)C2 [STX1676, 3-Hydroxy-adamantane-1-carboxylic acid(2-thiophen-2-yl-ethyl)-amide] | 118 to 119 °C
O=C(COCc1cccs1)C12CC3CC(CC(C3)C1)C2 [STX1692, 1-Adamantan-1-yl-2-(thiophen-2-ylmethoxy)-ethanone] | 57.2 to 58.3 °C
O=C(NCCc1cccs1)[C@H]1CC2C=CC1C2 (stereo partly drawn) [STX1707, Bicyclo[2.2.1]hept-5-ene-2-carboxylic acid(2-thiophen-2-yl-ethyl)-amide (exo)] | 71 to 72 °C
O=C(NCCc1cccs1)[C@@H]1CC2C=CC1C2 (stereo partly drawn) [STX1708, Bicyclo[2.2.1]hept-5-ene-2-carboxylic acid(2-thiophen-2-yl-ethyl)-amide (endo)] | 122 to 124 °C
CN(Cc1cccs1)C(=O)[C@H]1CC2C=CC1C2 (stereo partly drawn) [STX1709, Bicyclo[2.2.1]hept-5-ene-2-carboxylic acid methyl-thiophen-2-ylmethyl-amide (exo)] | 74 to 75 °C
